Counter-ions that a name gives are not always drawn.

For one data set, the target named is T1, IRAK4 (Homo sapiens, UniProt Q9NWZ3).
T1 construct: expressed in transfected cells; host or cells: K562 IRAK4-HiBiT cells
T1 sequence (Q9NWZ3 1-460): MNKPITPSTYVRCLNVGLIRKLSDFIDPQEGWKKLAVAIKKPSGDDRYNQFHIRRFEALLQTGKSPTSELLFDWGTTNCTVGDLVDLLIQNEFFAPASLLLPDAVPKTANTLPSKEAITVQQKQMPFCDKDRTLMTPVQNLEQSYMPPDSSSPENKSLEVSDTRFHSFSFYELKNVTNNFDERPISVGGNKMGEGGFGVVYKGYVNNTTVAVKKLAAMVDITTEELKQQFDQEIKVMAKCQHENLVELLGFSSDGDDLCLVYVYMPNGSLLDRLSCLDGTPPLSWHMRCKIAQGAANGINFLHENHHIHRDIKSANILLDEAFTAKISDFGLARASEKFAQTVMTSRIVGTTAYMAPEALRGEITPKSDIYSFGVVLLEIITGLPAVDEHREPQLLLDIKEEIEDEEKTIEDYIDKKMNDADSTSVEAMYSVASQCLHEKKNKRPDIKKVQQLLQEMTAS
Description: Target protein degradation effect in K562 IRAK4-HiBiT cells (Nano-Glo HiBiT). Type of data set: cell-based. To be noted: incubated 16 to 18 hours. Here is the method:
Experimental purpose: In this experiment, the degradation effect of the test compound on the target protein IRAK4 in K562 IRAK4-HiBiT cells was detected.
• Cells: K562 IRAK4-HiBiT cells • Culture media: RPMI 1640+10% FBS+2 mM GlutaMax+1 mM sodium pyruvate+penicillin/streptomycin • Positive control: 1000 nM; negative control: 0.1% DMSO
• (1). The compound to be tested in powder form was dissolved in DMSO to 10 mM as a storage concentration, and 9 μL of the 10 mM compound to be tested was manually pipetted to column 1 and column 13 of an LDV plate using a pipette; • (2). 6 μL of DMSO was added to columns 2 to 12 and 14 to 24 using Multidrop Combi; [0688](3). the compound to be tested was 3-fold diluted (3 μL+6 μL) from columns 1 to 11 and 13 to 23 using Bravo; • (4). 25 nL of compound solution (columns 1 to 24 of the LDV plate) was transferred to an assay plate using Echo according to the plate layout; • (5). 25 nL of 1 mM positive control solution was transferred to the assay plate as a 100% degradation control (i.e., LC, HPE) and 25 nL of DMSO was transferred to the assay plate as a 0% control (i.e., HC, ZPE) using Echo.
• (1). The cell culture medium was discarded, and the cells were washed once with DPBS, digested with trypsin, and counted to prepare a cell suspension of […]; • (2). 25 µL/well of cell suspension was added to the assay plate containing the compound to be tested using Multidrop Combi at medium speed; • (3). the assay plate containing cells was returned to an incubator with 5% CO2 at 37° C. and incubated for 16 to 18 hours.
• (1). 25 µL/well of assay reagent (NanoGlo lysis buffer+substrate+LgBit protein) was added to the assay plate using Multidrop Combi at high speed, and the plate was shaken for 10 minutes; • (2). the plate was centrifuged at 2000 rpm for 1 minute to remove air bubbles; • (3). the plate was read on Envision using US Luminescence detection method.
The inhibition rate (IR) of the test compound was calculated using the following formula: IR (%)=(RLU vehicle control−RLU compound)/(RLU vehicle control−RLU positive control)×100%, and the vehicle control is the blank control. The inhibition rates of compounds at different concentrations were calculated in Excel, and then XLFit software was used to plot inhibition curves and calculate relevant parameters, including minimum inhibition rate, maximum inhibition rate, and DC50.
In general terms: The HiBiT peptide binds its large partner to form an active luciferase.

A short description of data set [1]: Pharmacokinetic evaluation in mice, experimental operation B (C57BL/6N). In kind it is in vivo. The note with it: C57BL/6N mice. The source says:
In this study, CD-1 or C57BL/6N male mice were selected as test animals, and LC/MS/MS method was used to quantify plasma concentrations of the test compound intravenously injected or intragastrically administered to mice at different time points, so as to evaluate the pharmacokinetic profile of the test drug in mice.
CD-1 mice (male, 20 to 35 g, 7 to 10 weeks old, Beijing Vital River) or C57BL/6N mice (male, 20 to 30 g, 7 to 10 weeks old, Beijing Vital River)
A clarified solution or suspension of the test compound was injected into C57BL/6N mice (overnight fasting) via the tail vein (vehicle: 5% DMSO/10% Solutol/85% H2O), or intragastrically administered into C57BL/6N mice (overnight fasting). For intravenous injection, […] of blood was collected via the cheek puncture at 0 h (pre-administration) and 0.083 h, 0.25 h, 0.5 h, 1 h, 2 h, 4 h, 6 h, 8 h, and 24 h after administration, and placed in an anticoagulant tube added with heparin sodium. The mixture was thoroughly vortexed and mixed, and centrifuged at 6000 g for 3 minutes at 2 to 8° C. For oral administration, blood was collected via the cheek puncture at 0 h (pre-administration) and 0.083 h, 0.25 h, 1 h, 2 h, 4 h, 6 h, 8 h, and 24 h after administration, and placed in an anticoagulant tube added with heparin sodium. The mixture was thoroughly vortexed and mixed, and centrifuged at 6000 g for 3 minutes at 2 to 8° C. Plasma concentrations were determined by LC-MS/MS method, and relevant pharmacokinetic parameters were calculated using Phoenix WinNonlin 8.2.0 pharmacokinetic software with non-compartmental model linear-log trapezoidal method.

The mark [2] stands for this setting: Intragastric administration 10 mg/kg.

As a reminder, the DC50 is the concentration giving 50% degradation. A high value points to degradation only at high concentration. The bioavailability is the share of a dose that reaches the circulation, judged against a reference dose that is usually intravenous. What is called clearance is the rate of elimination divided by the concentration. Low values mean a low capacity for elimination, high ones a high capacity for elimination. One may read the half-life as the time in which the quantity being followed falls by half. Regarding `O=C1CCC(c2noc3c(NC(=O)CN4CCN(C[C@H]5CC[C@H](n6cc(NC(=O)c7cnn8ccc(N9C[C@H]%10C[C@@H]9CO%10)nc78)c(C(F)F)n6)CC5)CC4)cccc23)C(=O)N1` (stereo partly shown) [Hydrochloride of WX015], at IRAK4, half-maximal degradation (DC50) was put at 4.12 nM and the Maximum inhibition rate worked out at 106.70%. Further, in data set [1] (setting [2]), the “Area under the drug-time curve (0-inf)” value was 2.51 µM·h, the Peak concentration is 0.4 µM and the “Time to peak concentration” value was 1.33 h. Further, the “Area under the drug-time curve (0-inf)” value in data set [1] (Intravenous injection 2 mg/kg) was 1.45 µM·h. Also, the bioavailability in data set [1] (male, mouse, plasma, IV 2 mg/kg, PO 10 mg/kg, read-out: Bioavailability F) was found to be 34.6%. The same compound registered a clearance in data set [1] (male, mouse, plasma, Intravenous injection 2 mg/kg) of 27.6 mL/min/kg. Also, the Vd in data set [1] (male, mouse, plasma, Intravenous injection 2 mg/kg, read-out: Apparent volume of distribution) turned out to be 4.82 L/kg. Besides, in data set [1] (male, mouse, plasma, Intravenous injection 2 mg/kg, read-out: Elimination half-life (converted)), the half-life was 4.25 h.
